Activity calls are given as the source filed them. How the calls were made is not given here.
Test system: parental cell line counter screen, S1P1 agonist assay readout
Assay: signal in parental cells, counter-screen for S1P1 agonist project (AID 467);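 further: agonist potency measured against forskolin stimulation plus an EC20 level of SEW2871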

SMILES | EC50
Cc1nc(NC(C)c2ccccc2)c2oc3ccccc3c2n1 (configuration not stated) | 52.9 µM (inactive)
Cn1c(SCC(=O)Nc2ccc(N3CCOCC3)c(Cl)c2)nnc1-c1ccccc1 | > 95.1 µM (inactive)
CCc1ccc(N(CC)c2ncnc3nc[nH]c23)cc1 | > 95.1 µM (inactive)
O=C(CSc1ncnc2c1oc1ccccc12)N1CCCc2ccccc21 | > 10 µM (inactive)
CC(C)c1cc(C(F)(F)F)n2nc(C(=O)Nc3ccc4c(c3)OCO4)cc2n1 | > 95.1 µM (inactive)
COc1ccc(-n2c(C)cc(C(=O)COC(=O)Cn3cnc4ccccc43)c2C)cc1 | > 30 µM (inactive)
O=C(C1CCC1)N1CCc2cc(S(=O)(=O)Nc3ccc4c(c3)OCCO4)ccc21 | > 95.1 µM (inactive)
COC(=O)c1ccc(OCC(O)Cn2nnc3ccccc32)cc1 (configuration not stated) | > 95.1 µM (inactive)
Cc1cc(N2CCN(C/C=C/c3ccccc3)CC2)n2ncnc2n1 | > 95.1 µM (inactive)
O=C(c1ccccc1)C(CCC(CN1CCOCC1)C(=O)c1ccccc1)CN1CCOCC1 (configuration not stated) | 2.68 µM
c1ccc(-c2ccc(-c3nc(-c4ccncc4)no3)cc2)cc1 | > 95.1 µM (inactive)
CN(C)S(=O)(=O)c1ccc(C(=O)Nc2nc(-c3cccs3)cs2)cc1 | > 95.1 µM (inactive)
CCOc1ccc(S(=O)(=O)n2cnc3cc(C)c(C)cc32)cc1 | > 30 µM (inactive)
Fc1ccc2[nH]c3c(N4CCN(Cc5ccc6c(c5)OCO6)CC4)ncnc3c2c1 | 8.16 µM
COCCN(C(=O)c1ccccc1)c1nnc(-c2cccnc2)s1 | > 95.1 µM (inactive)
Nc1ccc(N2CCCCCC2)cc1 | 9.89 µM
COC(=O)CC1SC(=O)NC1=Nc1ccccc1 (configuration not stated) | > 95.1 µM (inactive)
CC(=O)Nc1ccc(S(=O)(=O)N2CCN(c3cccc(C)c3C)CC2)cc1 | 36.5 µM (inactive)
CCN(CC)C(=O)C1CCN(S(=O)(=O)c2ccc3oc4ccccc4c3c2)CC1 | > 95.1 µM (inactive)
CC1=C(C(=O)OCc2ccc3c(c2)OCO3)C(c2ccccc2)NC(=O)N1 (configuration not stated) | > 10 µM (inactive)
CC(C)OC(=O)CSc1nc(N)c(C#N)c(-c2cccs2)c1C#N | > 95.1 µM (inactive)
CS(=O)(=O)n1nc(OC(=O)c2cccc3ccccc23)cc1N | 12 µM (inactive)
CC(C)COC(=O)NCCOC(=O)Nc1cccc(Cl)c1 | 27.7 µM (inactive)
Cc1noc(C)c1S(=O)(=O)N(CC(=O)Nc1ccc2c(c1)OCCO2)c1ccc(C(C)C)cc1 | > 95.1 µM (inactive)
CCCCNc1cc(C)nc(NCc2ccccc2)n1 | 12.8 µM (inactive)
O=c1[nH]nc(Sc2ncnc3sccc23)n1CCc1ccccc1 | 21.1 µM (inactive)

SMILES | EC50
CN1CCN(C(=O)CSc2nc(-c3cccs3)cc(-c3cccs3)c2C#N)CC1 | 19.7 µM (inactive)
Cc1ccc(C)c(-n2nnnc2Sc2nnnn2-c2ccccc2)c1 | 6.91 µM
CCc1c(C)sc(NC(=O)c2cc(-c3ccco3)on2)c1C#N | > 95.1 µM (inactive)
CCOC(=O)c1oc2ccc(S(=O)(=O)n3nc(-c4ccc(OC)cc4)cc3N)cc2c1C | > 95.1 µM (inactive)
CCC(NC(=O)Nc1nnc(C(F)(F)F)s1)(C(F)(F)F)C(F)(F)F | > 95.1 µM (inactive)
O=C(c1cc(-c2ccccc2)on1)N1CCN(Cc2ccc3c(c2)OCO3)CC1 | > 30 µM (inactive)
Cc1nc(C)c(C(=O)Nc2ccc(Oc3ccccc3)cc2)o1 | > 30 µM (inactive)
CCCC(=O)Nc1ccc(-c2nc3cc(C)c(C)cc3o2)cc1 | > 95.1 µM (inactive)
Cc1noc(/C=C/N(C)C)c1S(=O)(=O)N1CCN(c2ccccc2)CC1 | > 95.1 µM (inactive)
N#CCCS(=O)(=O)c1nnnn1-c1ccccc1 | 1.34 µM
CCCn1c(CNc2ccc(Br)cc2)nc2ccccc21 | 38.1 µM (inactive)
CCOC(=O)c1sc2nc(NC(=O)C(C)(C)C)sc2c1C | > 10 µM (inactive)
COc1cccc(NC(=O)Nc2nnc(N3CCCCC3C)s2)c1 (configuration not stated) | 40 µM (inactive)
CCOc1ccc(-c2noc(-c3cccnc3)n2)cc1OC | > 95.1 µM (inactive)
CC(C)c1ccc(OCc2nc(-c3ccccn3)no2)c(Br)c1 | 63 µM (inactive)
C=CS(=O)(=O)c1ccc(Oc2ccc(S(=O)(=O)C=C)cc2)cc1 | 1.06 µM
COc1cccc(-c2nc(-c3ccc(NC(=O)c4cccnc4)cc3)no2)c1 | > 95.1 µM (inactive)
O=C(Nc1ncc(Br)s1)C(Cc1ccccc1)n1cccc1 (configuration not stated) | > 10 µM (inactive)
CCCCCn1c(=O)c(C(=O)NCc2ccncc2)c(O)c2ccccc21 | 30.8 µM (inactive)
Cc1ccc(C(C)C)c(OCc2nc(-c3nonc3N)no2)c1 | > 30 µM (inactive)
Cc1noc(C)c1S(=O)(=O)N(CC(=O)Nc1ccc2c(c1)OCO2)c1ccc(C(C)C)cc1 | > 95.1 µM (inactive)
Cc1ccc2nc(C(F)(F)F)c(C#N)c(N)c2c1 | 6.47 µM
Cc1ccnc(SCC(=O)Nc2sc3c(c2C#N)CCCC3)n1 | > 30 µM (inactive)
Cc1ccccc1CS(=O)(=O)c1nnc([C@H](CC(C)C)NC(=O)OC(C)(C)C)o1 | 2.89 µM
CC(C)(C)OC(=O)N[C@@H](Cc1ccccc1)c1nnc(S(=O)(=O)Cc2cccc(F)c2)o1 | 2.63 µM
CCOc1ccc(-c2noc(-c3ccncc3)n2)cc1OCC | > 95.1 µM (inactive)

SMILES | EC50
O=C(Nc1cccc(C(F)(F)F)c1)C1CCCN1S(=O)(=O)c1cccc2cccnc12 (configuration not stated) | > 30 µM (inactive)
O=C(Nc1nc(-c2nc3ccccc3s2)cs1)c1ccc(S(=O)(=O)N2CCOCC2)cc1 | 27.5 µM (inactive)
COc1ccc(OCCCSc2ncccn2)cc1 | > 95.1 µM (inactive)
Cc1ccc(-n2c(C)cc(C(=O)COC(=O)c3c(C)noc3C)c2C)cc1 | 37.6 µM (inactive)
O=C(Nc1ccc(OC(F)F)c(Cl)c1)Nc1ccc2c(c1)OCO2 | > 10 µM (inactive)
CCCOc1ccc(-c2nnc(-c3ccncc3)o2)cc1 | > 95.1 µM (inactive)
O=c1c(-c2ccc3c(c2)OCCO3)c(C(F)(F)F)oc2cc(O)cc(O)c12 | 18.4 µM (inactive)
CCOc1ccc(-c2nc(-c3ccncc3)no2)cc1OCC | > 95.1 µM (inactive)
Cc1nnc(SC(=O)N2c3ccccc3Sc3ccccc32)s1 | 3.42 µM
O=C(CSCC(=O)N1CCCCC1)Nc1nc(-c2cccs2)cs1 | > 30 µM (inactive)
CN1c2ccccc2C(C)(C)C12C=Cc1cc(O)ccc1O2 (configuration not stated) | > 10 µM (inactive)
CCc1nnc(NC(=O)C2CCCCC2)s1 | > 95.1 µM (inactive)
O=C(CSC1=NCCS1)Nc1ccnc2ccccc12 | 11.1 µM (inactive)
Cc1ccc(S(=O)(=O)Nc2ccc3ncccc3c2)cc1 | > 30 µM (inactive)
CN(C)c1ccnc2sc3c(=O)n(Cc4ccccc4)cnc3c12 | > 95.1 µM (inactive)
O=S(=O)(C/C(=C/CO)S(=O)(=O)c1ccccc1)c1ccccc1 | 2.21 µM
Cc1cc(C(=O)CN2C(=O)c3ccccc3C2=O)c(C)n1Cc1cccs1 | > 95.1 µM (inactive)
CCOc1nc(-c2ccccc2)ccc1-c1noc(-c2ccco2)n1 | > 95.1 µM (inactive)
Cc1cccc(-c2nc(CSCC(=O)N3CCN(c4ccccn4)CC3)c(C)o2)c1 | 31 µM (inactive)
COc1ccc(-n2nnnc2S(=O)(=O)CC(=O)N2CCCCC2)cc1 | 2.35 µM
CCOC(=O)Cc1csc(NC(=O)c2ccc(Br)s2)n1 | 47.9 µM (inactive)
CC(=O)c1ccc(NC(=O)N2CCN(c3cccc(Cl)c3)CC2)cc1 | > 30 µM (inactive)
Cc1nn(Cc2ccc(Cl)c(Cl)c2)c(C)c1NC(=O)c1cc(-c2ccco2)on1 | 13.2 µM (inactive)
CCOC(=O)C1CCN(c2ncnc3c2oc2ccccc23)CC1 | 45.1 µM (inactive)
O=C(CSc1nnc(-c2c[nH]c3ccccc23)o1)N(Cc1ccccc1)c1ccc(F)cc1 | 16 µM (inactive)
Cc1ccc(-c2nc(COC(=O)c3c(C)noc3C)cs2)cc1 | > 95.1 µM (inactive)

SMILES | EC50
Cc1ccc2c(c1)N(CC(=O)Nc1ccc3c(c1)OCCO3)C(=O)CO2 | > 95.1 µM (inactive)
c1ccc(CNc2ncnc3ccccc23)cc1 | 30.1 µM (inactive)
O=C(OC1CCCCC1)c1ccc(NC(=O)c2ccco2)cc1 | > 30 µM (inactive)
Cc1ccc(C(=O)Nc2nc(COc3ccccc3)cs2)s1 | 28.9 µM (inactive)
CCN(CC)C(=O)CSC(=Nc1ccccc1F)NC#N | > 95.1 µM (inactive)
c1ccc(CN2CCN(c3ncnc4c3[nH]c3ccccc34)CC2)cc1 | 12.1 µM (inactive)
Cc1cc(C)n(-c2nc3ccccc3c(=O)n2OCCOc2ccccc2)n1 | > 95.1 µM (inactive)
CC(C)Cn1c(=O)c(C(=O)Nc2ccccc2S(N)(=O)=O)c(O)c2ccccc21 | 16.3 µM (inactive)
Cc1ccc(NC(=O)c2cc(-c3ccco3)on2)cc1C | > 95.1 µM (inactive)
COc1cccc(-c2csc(N3CCN(CC(=O)Nc4ccc5c(c4)OCO5)CC3)n2)c1 | > 30 µM (inactive)
COCCn1c(C)cc(C(=O)CSc2nnc(-c3cccnc3)n2-c2ccccc2F)c1C | > 95.1 µM (inactive)
O=C(Nc1nc2c(s1)CCCC2)c1cc2n(n1)C(C(F)(F)F)CC(C1CC1)N2 (configuration not stated) | > 95.1 µM (inactive)
c1ccc2c(c1)oc1c(NCc3ccc4c(c3)OCO4)ncnc12 | 38.9 µM (inactive)
O=S(=O)(NCc1cn2ccsc2n1)c1ccc(Oc2ccccc2)cc1 | 45.3 µM (inactive)
COc1ccc(-c2nc(-c3cccc(C(F)(F)F)c3)no2)cc1OC | > 95.1 µM (inactive)
Cc1nc2ncnn2c(N2CCN(c3cccc(C(F)(F)F)c3)CC2)c1C | > 30 µM (inactive)
Cc1nn(-c2nc3ccccc3s2)c(N)c1-c1ccccc1 | > 95.1 µM (inactive)
O=C(Nc1ccc(Oc2ccccc2)cc1)c1cnc2n(c1=O)CCS2 | > 95.1 µM (inactive)
CCc1c(C)nc2ncnn2c1NCCc1ccc(OC)cc1 | 40.9 µM (inactive)
CN(C)c1oc(-c2ccc(OCc3ccccc3)cc2)nc1C#N | > 95.1 µM (inactive)
CC(C)(CC(=O)N1CCN(c2ccc(Cl)cc2)CC1)CC1=NS(=O)(=O)c2ccccc2N1 | 19.9 µM (inactive)
Brc1ccc2ncnc(Nc3ccc(N4CCOCC4)cc3)c2c1 | 46.6 µM (inactive)
CCCc1cc(C(=O)Nc2sc3c(c2C#N)CCC3)no1 | > 95.1 µM (inactive)
O=C(Cc1c[nH]c2ccccc12)N1CCc2ccccc21 | > 95.1 µM (inactive)

Source: PubChem BioAssay AID467 (The Scripps Research Institute Molecular Screening Center, 2006)
